Data: ChEMBL document CHEMBL1201862, “PubChem BioAssay data set” (2004)
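These data come from cells grown in 96-well plates and exposed to compound for 48 hours at five concentrations. At the GI50, growth is halved.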 Calls of active or inactive are those of the source. Rule as the data show it: active = GI50 up to about 1.1 µM and inactive = higher.

What was measured:
Test in all cases: NCI-60 cell line screen, 48 h
[1] = test system: SF-539
[2] = test system: BT-549
[3] = test system: MOLT-4
[4] = test system: HL-60
[5] = test system: OVCAR-5
[6] = test system: OVCAR-8
[7] = test system: NCI-H522
[8] = test system: UO-31
[9] = test system: U-251
[10] = test system: HT-29
[11] = test system: MDA-N
[12] = test system: M14
[13] = test system: UACC-257
[14] = test system: NCI-H460
[15] = test system: SNB-19
[16] = test system: IGROV-1
[17] = test system: K562
[18] = test system: SNB-75
[19] = test system: A549
[20] = test system: TK-10
[21] = test system: CCRF-CEM
[22] = test system: SK-MEL-5
[23] = test system: MDA-MB-231
[24] = test system: MCF7
[25] = test system: DU-145
[26] = test system: SR
[27] = test system: MDA-MB-435
[28] = test system: NCI-H226
[29] = test system: OVCAR-4
[30] = test system: SF-268
[31] = test system: ACHN
[32] = test system: EKVX
[33] = test system: KM12
[34] = test system: T47D
[35] = test system: SF-295
[36] = test system: RXF 393
[37] = test system: Hs-578T
[38] = test system: 786-0
[39] = test system: NCI-H23
[40] = test system: OVCAR-3
[41] = test system: A498
[42] = test system: PC-3
[43] = test system: LOX IMVI
[44] = test system: HCT-15
[45] = test system: SW-620
[46] = test system: HOP-62
[47] = test system: NCI/ADR-RES
[48] = test system: SK-MEL-28
[49] = test system: SN12C
[50] = test system: SK-MEL-2
[51] = test system: HCC 2998
[52] = test system: Malme-3M
[53] = test system: UACC-62
[54] = test system: CAKI-1
[55] = test system: HOP-92
[56] = test system: HCT-116
[57] = test system: SK-OV-3
[58] = test system: COLO 205
[59] = test system: RPMI-8226

## CC(C)=Nn1cnc2c1=NC(C)(C)NC=2C(N)=O
[1]
  GI50: > 10 µM (inactive)
[2]
  GI50: > 10 µM (inactive)
[3]
  GI50: > 10 µM (inactive)
[4]
  GI50: > 10 µM (inactive)
[5]
  GI50: > 10 µM (inactive)
[6]
  GI50: > 10 µM (inactive)
[7]
  GI50: > 10 µM (inactive)
[8]
  GI50: > 10 µM (inactive)
[9]
  GI50: > 10 µM (inactive)
[10]
  GI50: 1 µM (active)
[11]
  GI50: > 10 µM (inactive)
[12]
  GI50: > 10 µM (inactive)
[13]
  GI50: > 10 µM (inactive)
[14]
  GI50: > 10 µM (inactive)
[15]
  GI50: > 10 µM (inactive)
[16]
  GI50: > 10 µM (inactive)
[17]
  GI50: > 10 µM (inactive)
[18]
  GI50: > 10 µM (inactive)
[19]
  GI50: > 10 µM (inactive)
[20]
  GI50: > 10 µM (inactive)
[21]
  GI50: > 10 µM (inactive)
[22]
  GI50: > 10 µM (inactive)
[23]
  GI50: 0.125 µM (active)
[24]
  GI50: > 10 µM (inactive)
[25]
  GI50: > 10 µM (inactive)
[26]
  GI50: > 10 µM (inactive)
[27]
  GI50: > 10 µM (inactive)
[28]
  GI50: > 10 µM (inactive)
[29]
  GI50: > 10 µM (inactive)
[30]
  GI50: > 10 µM (inactive)
[31]
  GI50: > 10 µM (inactive)
[32]
  GI50: > 10 µM (inactive)
[33]
  GI50: > 10 µM (inactive)
[34]
  GI50: 0.001 µM (active)
[35]
  GI50: > 10 µM (inactive)
[36]
  GI50: > 10 µM (inactive)
[37]
  GI50: > 10 µM (inactive)
[38]
  GI50: > 10 µM (inactive)
[39]
  GI50: > 10 µM (inactive)
[40]
  GI50: > 10 µM (inactive)

## Cc1cccc(Cl)c1NCC(O)CN1CCN(C)CC1 (configuration not stated)
[41]
  GI50: > 100 µM (inactive)
[2]
  GI50: > 100 µM (inactive)
[42]
  GI50: > 100 µM (inactive)
[3]
  GI50: > 100 µM (inactive)
[5]
  GI50: > 100 µM (inactive)
[6]
  GI50: > 100 µM (inactive)
[43]
  GI50: > 100 µM (inactive)
[44]
  GI50: > 100 µM
[7]
  GI50: > 100 µM (inactive)
[8]
  GI50: > 100 µM (inactive)
[9]
  GI50: > 100 µM (inactive)
[10]
  GI50: > 100 µM (inactive)
[11]
  GI50: > 100 µM (inactive)
[45]
  GI50: > 100 µM (inactive)
[12]
  GI50: > 100 µM (inactive)
[13]
  GI50: > 100 µM (inactive)
[14]
  GI50: > 100 µM (inactive)
[46]
  GI50: > 100 µM (inactive)
[47]
  GI50: > 100 µM (inactive)
[15]
  GI50: > 100 µM (inactive)
[48]
  GI50: > 100 µM (inactive)
[16]
  GI50: > 100 µM (inactive)
[17]
  GI50: > 100 µM (inactive)
[49]
  GI50: > 100 µM (inactive)
[18]
  GI50: > 100 µM (inactive)
[50]
  GI50: > 100 µM (inactive)
[19]
  GI50: > 100 µM (inactive)
[20]
  GI50: > 100 µM (inactive)
[21]
  GI50: > 100 µM (inactive)
[22]
  GI50: > 100 µM (inactive)
[23]
  GI50: > 100 µM (inactive)
[25]
  GI50: > 100 µM (inactive)
[26]
  GI50: > 100 µM (inactive)
[27]
  GI50: > 100 µM (inactive)
[28]
  GI50: > 100 µM (inactive)
[51]
  GI50: > 100 µM (inactive)
[29]
  GI50: > 100 µM (inactive)
[30]
  GI50: > 100 µM (inactive)
[31]
  GI50: > 100 µM (inactive)
[32]
  GI50: > 100 µM (inactive)
[33]
  GI50: > 100 µM (inactive)
[52]
  GI50: > 100 µM (inactive)
[34]
  GI50: > 100 µM (inactive)
[53]
  GI50: > 100 µM (inactive)
[35]
  GI50: > 100 µM (inactive)
[54]
  GI50: > 100 µM (inactive)
[36]
  GI50: > 100 µM (inactive)
[37]
  GI50: > 100 µM (inactive)
[38]
  GI50: > 100 µM (inactive)
[39]
  GI50: > 100 µM (inactive)
[55]
  GI50: > 100 µM (inactive)
[40]
  GI50: > 100 µM (inactive)
[56]
  GI50: > 100 µM (inactive)

## CCOC(=O)c1sc2nc(SC)nc3c2c1NCN3c1ccccc1Cl
[41]
  GI50: 37.8 µM (inactive)
[2]
  GI50: 42.7 µM (inactive)
[42]
  GI50: 29.4 µM (inactive)
[3]
  GI50: > 100 µM (inactive)
[5]
  GI50: > 100 µM (inactive)
[57]
  GI50: 56.6 µM (inactive)
[6]
  GI50: 31.7 µM (inactive)
[43]
  GI50: 35.6 µM (inactive)
[58]
  GI50: > 100 µM (inactive)
[44]
  GI50: 71.1 µM
[7]
  GI50: 26.5 µM (inactive)
[8]
  GI50: 70.5 µM (inactive)
[9]
  GI50: 43.8 µM (inactive)
[10]
  GI50: 72.1 µM (inactive)
[11]
  GI50: 71.4 µM (inactive)
[45]
  GI50: 80.2 µM (inactive)
[12]
  GI50: > 100 µM (inactive)
[13]
  GI50: 48.8 µM (inactive)
[14]
  GI50: 30.7 µM (inactive)
[46]
  GI50: 40.9 µM (inactive)
[47]
  GI50: 40.2 µM (inactive)
[15]
  GI50: 48.3 µM (inactive)
[48]
  GI50: 55.2 µM (inactive)
[16]
  GI50: 63 µM (inactive)
[17]
  GI50: > 100 µM (inactive)
[49]
  GI50: > 100 µM (inactive)
[18]
  GI50: 24.8 µM (inactive)
[50]
  GI50: 97.3 µM (inactive)
[19]
  GI50: 38.7 µM (inactive)
[20]
  GI50: 37.8 µM (inactive)
[21]
  GI50: > 100 µM (inactive)
[22]
  GI50: 31.5 µM (inactive)
[23]
  GI50: 76.4 µM (inactive)
[25]
  GI50: 75.3 µM (inactive)
[27]
  GI50: > 100 µM (inactive)
[28]
  GI50: > 100 µM (inactive)
[51]
  GI50: 56.5 µM (inactive)
[29]
  GI50: 38.5 µM (inactive)
[30]
  GI50: 38.7 µM (inactive)
[31]
  GI50: 55.1 µM (inactive)
[33]
  GI50: > 100 µM (inactive)
[52]
  GI50: 31.8 µM (inactive)
[34]
  GI50: 23.7 µM (inactive)
[53]
  GI50: 37.4 µM (inactive)
[35]
  GI50: 52.6 µM (inactive)
[54]
  GI50: 50.8 µM (inactive)
[36]
  GI50: 19.3 µM (inactive)
[37]
  GI50: 35.4 µM (inactive)
[38]
  GI50: 24.3 µM (inactive)
[39]
  GI50: 42.2 µM (inactive)
[55]
  GI50: 25.3 µM (inactive)
[40]
  GI50: 84.5 µM (inactive)
[59]
  GI50: > 100 µM (inactive)
[56]
  GI50: 31.8 µM (inactive)

## O=S(=O)(Cc1ccccc1)c1nnc(S(=O)(=O)c2ccc(Cl)cc2)s1
[41]
  GI50: 22 µM (inactive)
[1]
  GI50: 18.5 µM (inactive)
[2]
  GI50: 20 µM (inactive)
[42]
  GI50: 21.8 µM (inactive)
[3]
  GI50: 3.39 µM (inactive)
[5]
  GI50: 24.8 µM (inactive)
[57]
  GI50: 23.3 µM (inactive)
[6]
  GI50: 19 µM (inactive)
[58]
  GI50: 16 µM (inactive)
[44]
  GI50: 20.9 µM
[7]
  GI50: 14 µM (inactive)
[8]
  GI50: 21.3 µM (inactive)
[9]
  GI50: 33 µM (inactive)
[10]
  GI50: 22.5 µM (inactive)
[11]
  GI50: 18.1 µM (inactive)
[45]
  GI50: 23.9 µM (inactive)
[12]
  GI50: 17.7 µM (inactive)
[13]
  GI50: 19.9 µM (inactive)
[14]
  GI50: 21.2 µM (inactive)
[46]
  GI50: 21.4 µM (inactive)
[47]
  GI50: 25 µM (inactive)
[15]
  GI50: 19.6 µM (inactive)
[48]
  GI50: 19.9 µM (inactive)
[17]
  GI50: 32.2 µM (inactive)
[49]
  GI50: 20.2 µM (inactive)
[18]
  GI50: 16.6 µM (inactive)
[50]
  GI50: 22.8 µM (inactive)
[19]
  GI50: 27.5 µM (inactive)
[20]
  GI50: 12.2 µM (inactive)
[22]
  GI50: 17.9 µM (inactive)
[23]
  GI50: 34.8 µM (inactive)
[24]
  GI50: 48 µM (inactive)
[25]
  GI50: 17 µM (inactive)
[27]
  GI50: 27.1 µM (inactive)
[29]
  GI50: 24.4 µM (inactive)
[30]
  GI50: 19.5 µM (inactive)
[31]
  GI50: 19.4 µM (inactive)
[32]
  GI50: 25.6 µM (inactive)
[33]
  GI50: 25.7 µM (inactive)
[34]
  GI50: 31.6 µM (inactive)
[53]
  GI50: 27 µM (inactive)
[35]
  GI50: 24.1 µM (inactive)
[54]
  GI50: 24.3 µM (inactive)
[36]
  GI50: 17.3 µM (inactive)
[37]
  GI50: 18.1 µM (inactive)
[38]
  GI50: 23.6 µM (inactive)
[39]
  GI50: 23.3 µM (inactive)
[40]
  GI50: 20.5 µM (inactive)
[59]
  GI50: 15.9 µM (inactive)
[56]
  GI50: 19.5 µM (inactive)
